“Also recorded” adds a separate entry of the source. Like-named read-outs stand apart in the source and are kept apart here.
Tests used:
[1] = system: MCF7 human breast cancer cells; assay: cells; details: for cell proliferation: 48 hours
Experimental: (§1) Particularly suitable assays for I3C derivatives include evaluating their ability to induce a G1 cell cycle arrest and to inhibit CDK6 protein levels in cultured MCF7 breast cancer cells. For the cell proliferative asssays, we have sucessfully employed several methods that we have previously described for rodent mammary tumor cells (44, 51). Briefly, human MCF7 breast cancer cells are cultured at subconfluency in medium supplemented with 10% fetal bovine serum and […] insulin. […] The incorporation of [^3H]thymidine (in a two hour pulse) into 10% trichloroacetic acid precipitable material are used to monitor and quantitate DNA synthesis and provides a direct measure of the proliferative state of the cells.
(§2) Antiproliferative effects of a combination of I3C and the anti-estrogen tamoxifen on breast cancer cell growth: Estrogen receptor (ER)-containing MCF7 or ER-deficient MDA-MB-231 breast cancer cells were treated for 48 hours with 100 μM I3C or 10 μM tamoxifen alone or with a combination of both reagents, and [^3H]thymidine incorporation used as a measure of cell proliferation.

Ah (dioxin) receptor = details: cited from earlier work
[2] = system: 7,12-dimethyl-benz(α)anthracene (DMBA)-induced mammary tumors; details: cited from earlier work
estrogen receptor (ER) = assay: ERE-vit-CAT reporter plasmid activity in transiently transfected MCF7 cells; format: cell-based, human; details: 48 hours; for effect on ERE-vit-CAT activity: estrogen 100 nM
Experimental: Cancer cells are also treated with combinations of indole-derivatives and either steroidal or nonsteroidal anti-estrogens, such as tamoxifen, ICI 164384 and raloxifene (39, 52), at both suboptimal and optimal doses to determine the ability of a given I3C derivative to syngerize with the anti-estrogens in the growth suppression response. […] For example, MCF7 cells are transiently transfected with the ERE-vit-CAT reporter plasmid, which contains three estrogen responsive elements, and the cells monitored for changes in estrogen regulated CAT activity. For comparison, the effects of the I3C derivatives on growth of the estrogen-non-responsive MDA-MB-231 breast cell line are examined. […] Therefore, purified indole derivatives is also assayed in MCF7 cells for Ah receptor affinity, activation of Ah receptor binding to DNA, and activation of an Ah receptor-responsive CAT reporter (17).
(§3) I3C effects on estrogen receptor (ER) function was monitored by transient transfection of an ERE-vit-CAT reporter plasmid containing the vitellogenin promoter with three estrogen response elements linked upstream and driving the bacterial chloramphenicol acetyl transferase (CAT) gene.

cell growth = assay: Inhibition of cell growth; format: cell-based
[3] = system: DMBA-induced mammary tumors; details: administered prior to and during DMBA treatment; cited from earlier work
[4] = system: spontaneous mammary tumors; details: cited from earlier work
[5] = system: estrogen receptor-deficient MDA-MB-231 breast cancer cells; assay: [3H]thymidine incorporation in estrogen receptor-deficient breast cancer cells; format: cell-based, human; details: for growth inhibitory effect: 48 hours, 100 μM I3C, 10 μM tamoxifen, alone or combined
Experimental: as §3, §2

[6] = system: methylnitrosourea-induced mammary tumors; details: administered prior to and during methylnitrosourea treatment; cited from earlier work
[7] = system: estradiol 2-hydroxylation; details: oral, around 500 mg daily for one week, men and women; cited from earlier work
[8] = system: human MCF7 breast cancer cells; details: 50 μM, long term treatment (up to six weeks), high density cultures; cited from earlier work
CDK2 = assay: Western/Northern blot of CDK2 expression; format: cell-based, human; details: same conditions as CDK6 reduction
Experimental: (§4) Our finding that I3C inhibits the protein levels of the CDK6 cell cycle component provides a unique molecular assay to determine the ability of a given I3C derivative to induce a cell cycle arrest of cancer cells. For example, I3C derivatives may be analyzed by western blot to determine the level of CDK6 protein produced in treated or untreated human MCF7 breast cancer cells. In particular, cells are treated with varying concentrations, varying times alone or in the presence of particular sets of anti-estrogens; treatment with I3C may be used as a positive control. The cell extracts are then electrophoretically fractionated in SDS polyacrylamide gels, blotted onto nitrocellular membranes, the blotted proteins probed with CDK6 antibodies and the CDK6 protein visualized by autoradiography. Other G1 acting cell cycle genes maybe examined to confirm that a given I3C derivative is acting similarly to I3C itself. For example, the levels of the other cyclin dependent kinases (CDK2 and CDK4), cell cycle activators (cyclin D 1, D2, D3 and E) or cell cycle inhibitors (p 15, 16, p21 or p27) that function at discrete times within G1 may be assessed in indole treated or untreated MCF7 breast cancer cells. […]

CDK6 [9] = assay: Western and Northern blot of CDK6 in treated breast cancer cells; format: cell-based, human; details: for level of CDK6 protein (Western blot): cells treated with combinations of I3C and/or tamoxifen
Experimental: For example, I3C derivatives may be analyzed by western blot to determine the level of CDK6 protein produced in treated or untreated human MCF7 breast cancer cells. In particular, cells are treated with varying concentrations, varying times alone or in the presence of particular sets of anti-estrogens; treatment with I3C may be used as a positive control. The cell extracts are then electrophoretically fractionated in SDS polyacrylamide gels, blotted onto nitrocellular membranes, the blotted proteins probed with CDK6 antibodies and the CDK6 protein visualized by autoradiography. […] For example, the levels of the other cyclin dependent kinases (CDK2 and CDK4), cell cycle activators (cyclin D 1, D2, D3 and E) or cell cycle inhibitors (p 15, 16, p21 or p27) that function at discrete times within G1 may be assessed in indole treated or untreated MCF7 breast cancer cells.
To determine the mechanism by which I3C induces the G1 cell cycle arrest of human breast cancer cells, Western blot and Northern blot analyses were utilized to examine whether I3C treatment regulates the protein production and transcript expression of the cyclin dependent protein kinases (CDKs), cyclins and CDK Inhibitor components of the cell cycle that function within the G1 phase.

CDK4 = assay: Western/Northern blot of CDK4 expression; format: cell-based, human; details: same conditions as CDK6 reduction
Experimental: as §4

[10] = gastric acid; cited from earlier work
CDK6 [11] = assay: CDK6 protein expression in estrogen receptor negative cell lines; format: cell-based
Experimental: To determine the mechanism by which I3C induces the G1 cell cycle arrest of human breast cancer cells, Western blot and Northern blot analyses were utilized to examine whether I3C treatment regulates the protein production and transcript expression of the cyclin dependent protein kinases (CDKs), cyclins and CDK Inhibitor components of the cell cycle that function within the G1 phase. […] In particular, CDK6 transcript levels dropped about 30% in 5 hrs and 60% by 15 hours. […] Furthermore, 13C inhibits CDK6 protein expression in estrogen receptor negative cell lines. […] This novel observation provides a basis for a molecular diagnostic assay to determine the sensitivity of a given tumor sample to I3C growth suppression.

MCF-7 cells = assay: Flow cytometry of nuclear DNA content (propidium iodide), cell cycle arrest; format: cell-based, human; details: for percentage of MCF7 cells arrested in G1: I3C, tamoxifen alone or combined
Experimental: as §1
To assess the cell cycle effects of I3C, MCF-7 cells treated with or without 100 μM I3C for 96 hours were hypotonically lysed in the presence of propidium iodide to fluorescently stain the nuclear DNA.
as §2

p21 cell cycle inhibitor = assay: Western blot of p21 cell cycle inhibitor level; format: cell-based, human; details: only after 72-96 hours of treatment
Experimental: Western blot analysis has shown that I3C stimulates the level of the p21 cell cycle inhibitor by approximately 3-4 fold only after 72-96 hours of indole treatment, which is when the cells begin to display their maximal cell cycle arrest. This response is not likely to initiate the cell cycle arrest, though provides another useful molecular marker to in the examination of tissue biopsies.

cyclin D1 = details: estrogen responsive breast cancer cells; cited from earlier work

c1ccc2c(Cc3c[nH]c4ccccc34)c[nH]c2c1 [DIM, 3,3′-diindolylmethane]
suppression of MCF7 cell growth ([1]; acid products of I3C): do not suppress growth; also recorded: failed to suppress the growth | Kd (Ah (dioxin) receptor): 0.09 µM | reduction of DMBA-induced mammary tumors ([2]; in vivo): highly effective

estrogen
effect on ERE-vit-CAT activity (estrogen receptor (ER)): stimulated

CC(=O)OCc1cn(C(C)=O)c2ccccc12 [N,O-diacetyl-indole-3-carbinol]
inhibition of cell growth (cell growth): particularly effective inhibitors of cell growth

OCc1c[nH]c2ccccc12 [Compound I3C, Indole-3-carbinol]
reduction of mammary tumor incidence [3]: ≤ 95% | reduction of spontaneous mammary tumor incidence and multiplicity ([4]; diets with 500 or 2000 p.p.m., both doses): ca. 50% | tumor latency ([4]; high dose group): prolonged | growth inhibitory effect [5]: strong growth suppression effect | inhibition at 100 µM ([5]; Homo sapiens, MDA-MB-231, 100 μM, read-out: inhibition of proliferation ([3H]thymidine incorporation)): > 50% | reduction of mammary tumor incidence [6]: ≤ 65% | increase in estradiol 2-hydroxylation [7]: approximately 50% | estradiol-induced proliferation [8]: blocked | effect on ERE-vit-CAT activity (estrogen receptor (ER)): no effect | effect on CDK2 expression (CDK2): no effect | cell morphology ([1]; 100 μM): no morphology change | cell proliferation ([1]; 100 μM): near maximally growth arrested | cell morphology ([1]; 300 μM): changed to a more elongated phenotype | cell proliferation ([1]; 300 μM): maximally inhibited | IC50 ([1]; Homo sapiens, MCF7, read-out: half-maximal response, inhibition of [3H]thymidine incorporation): 30 µM | inhibition at 100 µM ([1]; Homo sapiens, MCF7, read-out: inhibition of MCF7 DNA synthesis ([3H]thymidine incorporation) compared to vehicle controls, 48 hours, 100 μM I3C, 10 μM tamoxifen, alone or combined): ~70% | inhibition at 100 µM ([1]; Homo sapiens, MCF7, read-out: inhibition of [3H]thymidine incorporation, 100 μM, after 72 hours): 80% | inhibition at 100 µM ([1]; Homo sapiens, MCF7, read-out: inhibition of [3H]thymidine incorporation, 100 μM, after 96 hours): > 90% | cell death ([1]; prolonged exposure (5 days)): did not result in any detectable cell death | reversibility of growth suppression ([1]; time course of addition and withdrawal): completely reversible | rate of [3H]thymidine incorporation after withdrawal ([1]; within 48 hours of withdrawal from 48 or 72 hour treated cells): approximately equivalent to untreated cells | Kd (Ah (dioxin) receptor): 27 µM | time of indole treatment to reduced level of CDK6 protein (CDK6 [9]; 48 hours prior to complete cell cycle arrest): ≤ 24 h | drop of CDK6 transcript levels (CDK6 [9]; by 15 hours): ~60% | level of CDK6 protein (Western blot) (CDK6 [9]): reduced the level of CDK6 protein | drop of CDK6 transcript levels (CDK6 [9]; in 5 hrs): about 30% | effect on CDK4 expression (CDK4): no effect | stability in acidic solution [10]: extremely unstable | CDK6 protein expression (CDK6 [11]): inhibits | reduction of incidence of DMBA-induced mammary tumors ([2]; in the diet or by oral intubation prior to carcinogen): 70-80% | cells remaining with G2/M DNA content (MCF-7 cells; 100 μM, 96 hours): approximately 13% | cells with 2n DNA content (G1 block) (MCF-7 cells; 100 μM, 96 hours): 75% | percentage of MCF7 cells arrested in G1 (MCF-7 cells): 75% | stimulation of p21 level (p21 cell cycle inhibitor): 3-4 fold

CC/C(=C(\c1ccccc1)c1ccc(OCCN(C)C)cc1)c1ccccc1 [tamoxifen]
growth inhibitory effect [5]: no growth inhibitory effects | inhibition of basal ERE-vit-CAT reporter plasmid activity (estrogen receptor (ER); 10% fetal bovine serum): 70% | level of CDK6 protein (Western blot) (CDK6 [9]): not | cyclin D1 levels (cyclin D1): reduces | percentage of MCF7 cells arrested in G1 (MCF-7 cells): 70%

— patent publication US6656963B2, “Indole-3-carbinol (I3C) derivatives and methods” (The Regents of the University of California, priority 1997, dated 2003)
